Measurements: patent publication EP0444546B1, “Hydantoin derivatives for use as hypoglycemic and/or hypolipidemic agents” (MOCHIDA PHARMACEUTICAL CO., LTD., priority 1990, dated 1991)
“Also recorded” adds a separate entry of the source.

Experiments:
[1] = tested on: ICR strain mice; assay: Acute toxicity in mice; type: in vivo; conditions: oral dose of 1 g/kg, one-week period after the administration
Text: Hydantoin derivatives of the present invention were examined for acute toxicity.

[2] = tested on: streptozotocin - diabetic rats; assay: Hypolipidemic effects in streptozotocin-diabetic rats; type: in vivo; conditions: STZ-diabetic rats; for Lowering rate of serum lipids (%) CHOL / Lowering rate of serum lipids (%) NEFA / Lowering rate of serum lipids (%) TG: 100 mg/kg orally for 2 weeks; for Lowering rate of serum lipids (%) CHOL: serum cholesterol 6 hrs after the last administration; for Lowering rate of serum lipids (%) NEFA: serum non-esterified fatty acid 6 hrs after the last administration; for Lowering rate of serum lipids (%) TG: serum triglyceride 6 hrs after the last administration
Experimental: (§1) Diabetic rats were produced according to the method of Junod et al. (A. Junod et al., J. Clin. Invest., 48, 2129 (1969)). Briefly, male Wistar rats were given 26.5 mg/kg of streptozotocin (STZ) intravenously. Four days later, the rats with serum glucose levels of between 400 and 500 mg/dl were used. After being fasted for 4 hrs, groups of 5 diabetic rats were orally administered with the compounds of the present invention or gliclazide in a dose of 100 mg/kg. Blood samples were collected from the orbital vein before and 6 hrs after the administration. Serum glucose levels were determined by the enzymatic methods with an autoanalyzer (Cobas Fara ® , Roche).
(§2) Diabetic rats were produced according to the method described previously. Groups of 5 diabetic rats were orally administered with compound 20 or 23 of the present invention at a dose of 100 mg/kg for 2 weeks. The rats were deprived of food 4 hrs before the last administration, and 6 hrs after the last administration, blood samples were collected from the orbital vein. Serum triglyceride (TG), non - esterified fatty acid (NEFA) and cholesterol (CHOL) levels were determined by the enzymatic method with an autoanalyzer (Cobas Fara ® , Roche). In this experiment, each parameters of serum lipids in streptozotocin - diabetic rats increased by 40 % of normal rats in the mean value.

[3] = tested on: streptozotocin-diabetic rats; assay: Ketone body lowering effects in streptozotocin-diabetic rats; type: in vivo; conditions: STZ-diabetic rats; for Lowering rate of serum total ketone body (%): 100 mg/kg orally for 2 weeks, blood 6 hrs after the last administration
Experimental: as §1
as §2, with “invention” for “invention at a dose of 100 mg/kg”, “total ketone body (KB)” for “triglyceride (TG), non - esterified fatty acid (NEFA) and cholesterol (CHOL)”, “experiment,” for “experiment, each parameters of”, “total ketone body levels” for “lipids”, “92” for “40”

[4] = tested on: normal rats; assay: Hypoglycemic effects in normal rats; type: in vivo, male Wistar rats
Experimental: Groups of 5 male Wistar rats, after being fasted for 4 hrs, were orally administered with compound 20 or 23 of the present invention or gliclazide. Blood samples were collected from the orbital vein before, 1 hr and 6 hrs after the administration. Serum glucose levels were determined by the enzymatic method with an autoanalyser (Cobas Fara ® , Roche).

[5] = tested on: streptozotocin-diabetic rats; assay: Hypoglycemic effects in streptozotocin-diabetic rats; type: in vivo, male Wistar rats
Experimental: as §1, with “Four” for “Diabetic rats were produced according to the method of Junod et al. (A. Junod et al., J. Clin. Invest., 48, 2129 (1969)). Briefly, male Wistar rats were given 26.5 mg/kg of streptozotocin (STZ) intravenously. Four”

[6] = 100 mg/kg p.o., 1 hour after administration
[7] = 100 mg/kg p.o., 6 hours after administration

Q: `O=C1CN(S(=O)(=O)c2cc(Cl)sc2Cl)C(=O)N1` [Compound 16, 1-(2,5-dichlorothien-3-ylsulfonyl)hydantoin] was tested. Which acute toxicity [1] did it give?
A: The acute toxicity was “no change was observed”.

Q: For `O=C1CN(S(=O)(=O)c2oc3ccccc3c2Cl)C(=O)N1` [Compound 23, 1-(3-chlorobenzo[b]furan-2-ylsulfonyl)hydantoin], which “lowering of serum triglyceride, non - esterified fatty acid and cholesterol levels (in words)” value [2] is on record?
A: Its value is “lowering activities”.

Q: What about the “Lowering rate of serum lipids (%) CHOL” value [2] of the same compound?
A: The value was 30%.

Q: What about the “Lowering rate of serum lipids (%) NEFA” value [2] of the same compound?
A: Its value is 18%.

Q: And the “Lowering rate of serum lipids (%) TG” value [2]?
A: The value was 43%.

Q: What about the “lowering of serum total ketone body levels (in words)” value [3] of the same compound?
A: The value was “lowering activity”.

Q: And the “Lowering rate of serum total ketone body (%)” value [3]?
A: Its value is 43%.

Q: And the “influence on serum glucose level of normal rats (in words)” value (shortened to “influence on serum glucose level”) [4]?
A: The value was “lesser influences”.

Q: What about the “Lowering rate of serum glucose (%)” value [4, 6] of the same compound?
A: The value was 9%.

Q: What about the “Lowering rate of serum glucose (%)” value [4, 7] of the same compound?
A: Its value is 0%.

Q: And the acute toxicity [1]?
A: The acute toxicity was “no change was observed”.

Q: How did the “influence on serum glucose level” value [4] turn out when `Cc1ccc(S(=O)(=O)NC(=O)NN2CC3CCCC3C2)cc1` (centres unmarked) [Compound A, gliclazide, reference compound] was run?
A: The value was “significantly lowered; also recorded: remarkable hypoglycemic activity”.

Q: What about the “Lowering rate of serum glucose (%)” value ([4]; 10 mg/kg p.o., 1 hour after administration) of the same compound?
A: The value was 57%.

Q: And the “Lowering rate of serum glucose (%)” value ([4]; 10 mg/kg p.o., 6 hours after administration)?
A: The value was 1%.

Q: And the “hypoglycemic activity (in words)” value ([5]; STZ-diabetic rats / experimental animal model of diabetes mellitus)?
A: Its value is “less potent hypoglycemic activity than all compounds of the present invention”.

Q: For “1-(benzo[b]isothiazol-3-ylsulfonyl)hydantoin [Compound 15]”, which “Lowering rate of serum glucose (%)” value ([5]; STZ-diabetic rats fasted 4 hrs, 100 mg/kg orally, 6 hrs after administration vs before) is on record?
A: Its value is 23.6%.

Q: `O=C1CN(S(=O)(=O)c2cc3ccccc3o2)C(=O)N1` [Compound 9, 1-(benzo[b]furan-2-ylsulfonyl)hydantoin] was tested. Which acute toxicity [1] did it give?
A: Its acute toxicity is “no change was observed”.

Q: For `O=C1CN(S(=O)(=O)c2oc3ccccc3c2Br)C(=O)N1` [Compound 20, 1-(3-bromobenzo[b]furan-2-ylsulfonyl)hydantoin], which “lowering of serum triglyceride, non - esterified fatty acid and cholesterol levels (in words)” value [2] is on record?
A: The value was “lowering activities”.

Q: What about the “Lowering rate of serum lipids (%) CHOL” value [2] of the same compound?
A: Its value is 31%.

Q: What about the “Lowering rate of serum lipids (%) NEFA” value [2] of the same compound?
A: The value was 35%.

Q: What about the “Lowering rate of serum lipids (%) TG” value [2] of the same compound?
A: The value was 36%.

Q: And the “lowering of serum total ketone body levels (in words)” value [3]?
A: Its value is “lowering activity”.

Q: What about the “Lowering rate of serum total ketone body (%)” value [3] of the same compound?
A: The value was 50%.

Q: What about the “influence on serum glucose level” value [4] of the same compound?
A: The value was “lesser influences”.

Q: What about the “Lowering rate of serum glucose (%)” value [4, 6] of the same compound?
A: The value was 13%.

Q: And the “Lowering rate of serum glucose (%)” value [4, 7]?
A: The value was 6%.

Q: What about the acute toxicity [1] of the same compound?
A: Its acute toxicity is “no change was observed”.

Q: `O=C1CN(S(=O)(=O)c2cc3ccc(Cl)cc3cc2Cl)C(=O)N1` [Compound 2, 1-(3,6-dichloronaphthalen-2-ylsulfonyl)hydantoin] was tested. Which acute toxicity [1] did it give?
A: Its acute toxicity is “no change was observed”.

Q: Which acute toxicity [1] does the source give for `O=C1CN(S(=O)(=O)c2cc3ccccc3s2)C(=O)N1` [Compound 8, 1-(benzo[b]thien-2-ylsulfonyl)hydantoin] here?
A: Its acute toxicity is “no change was observed”.
